This note sets out measurements from ChEMBL document CHEMBL4387717, “Structure guided drug design to develop kallikrein 5 inhibitors to treat Netherton syndrome” (Bioorg Med Chem Lett, 2019).

Values after ≈ are worked out from the molar mass of the structure shown. Bounds are passed on as bounds.

The target in one data set is T1, Kallikrein-5 (Homo sapiens, UniProt Q9Y337).
T1 sequence (Q9Y337 whole entry): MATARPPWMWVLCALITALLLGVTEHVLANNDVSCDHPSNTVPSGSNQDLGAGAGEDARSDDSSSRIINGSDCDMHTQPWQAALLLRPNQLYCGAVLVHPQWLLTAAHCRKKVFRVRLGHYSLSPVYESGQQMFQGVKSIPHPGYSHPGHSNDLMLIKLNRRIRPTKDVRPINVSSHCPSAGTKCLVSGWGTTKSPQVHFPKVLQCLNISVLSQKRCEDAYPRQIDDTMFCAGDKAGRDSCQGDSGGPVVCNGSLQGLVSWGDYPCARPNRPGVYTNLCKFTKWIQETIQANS
Put plainly: Inhibition of recombinant 6His-Q-FLAG tagged human KLK5 expressed in baculovirus infected Sf9 insect cells using (Tos-Gly-Pro-Arg)2[R110].2TFA as substrate measured at 30 secs interval for 5 mins by fluorescence intensity assay.

The target of the next data set is Kallikrein-1 (Homo sapiens, UniProt P06870). The data set can be described thus: Inhibition of recombinant bovine enterokinase activated N-terminal His-tagged recombinant human KLK1 (19 to 262 residues) expressed in baculovirus infected Sf9 insect cells using 3',6'-bis(prolylphenylalanylarginylamino)3H-spiro(2-benzofuran-1,9'-xanthen)-3-one;TFA as substrate measured at 30 secs interval for 5 mins by fluorescence intensity assay.
Chain of Kallikrein-1 (P06870 whole entry, the tested form may be a part): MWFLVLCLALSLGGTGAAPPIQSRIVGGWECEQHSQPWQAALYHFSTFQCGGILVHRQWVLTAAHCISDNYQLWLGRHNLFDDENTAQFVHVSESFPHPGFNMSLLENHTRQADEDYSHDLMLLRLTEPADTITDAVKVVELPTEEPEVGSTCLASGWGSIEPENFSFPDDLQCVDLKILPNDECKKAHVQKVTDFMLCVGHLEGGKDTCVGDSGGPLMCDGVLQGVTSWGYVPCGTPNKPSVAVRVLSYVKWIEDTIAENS

The species named for the next data set is Homo sapiens. Put plainly: Selectivity index, ratio of compound effect for inhibition of recombinant bovine enterokinase activated N-terminal His-tagged recombinant human KLK1 (19 to 262 residues) expressed in baculovirus infected Sf9 insect cells to compound effect for inhibition of recombinant 6His-Q-FLAG tagged human KLK5 expressed in baculovirus infected insect Sf9 cells.

The nature of data set [1]: Solubility of the compound in water at 24 hrs. The format is physicochemical.
The nature of data set [2]: Solubility of the compound in pH 4 Britton-Robinson buffer at 24 hrs. To be noted: buffer, pH 4, 24 h. The format is physicochemical.
A short description of data set [3]: Solubility of the compound in pH 6 Britton-Robinson buffer at 24 hrs. Particulars: buffer, pH 6, 24 h. The format is physicochemical.
A short description of data set [4]: Half life in pH 4 to 8 buffer at 0.05 mg/ml over 24 hrs. The format is physicochemical.
Data set [5] can be described thus: Half life in pH 6 buffer at 0.05 mg/ml under H2O2-induced oxidative condition over 24 hrs. The format is physicochemical. Particulars: buffer with H2O2, pH 6.
Data set [6] is described as follows: Half life in pH 8 buffer at 0.05 mg/ml under H2O2-induced oxidative condition over 24 hrs. It is filed as physicochemical. To be noted: buffer with H2O2, pH 8.
A short description of data set [7]: Absorption property in methanol assessed as maximum absorption wavelength by UV-spectra analysis. The format is physicochemical.
Data set [8] is described as follows: Absorption property in methanol assessed as molar extinction co-efficient by UV-spectra analysis. The format is physicochemical.

For `N=C(N)c1ccc(NCc2nc(-c3ccccc3)c[nH]2)cc1OCC(=O)NC1CC1`, the IC50 is 0.0794 µM on Kallikrein-5 (read-out: pIC50 (converted)) and 15.8 µM at Kallikrein-1.
The matching figures for `N=C(N)c1ccc(NCc2ncc[nH]2)cc1`: 25.1 µM and 63.1 µM.
Turning to `CN(C)CCOc1cc(NCc2nc(-c3ccccc3)c[nH]2)ccc1C(=N)N`, the IC50 at Kallikrein-5 (read-out: pIC50 (converted)) was 15.8 µM; at Kallikrein-1, 79.4 µM.
For `N=C(N)c1ccc(NCc2nc(-c3ccccc3)c[nH]2)cc1`, in that order: 6.31 µM and 25.1 µM.
For `Cc1ccc2[nH]c(CNc3ccc(C(=N)N)cc3)nc2c1`, the IC50 on Kallikrein-5 (read-out: pIC50 (converted)) is 10 µM; at Kallikrein-1, 6.31 µM.
For `N=C(N)c1ccc(NCc2nc3ccccc3[nH]2)cc1`, in that order: 20 µM and 39.8 µM.
For `N=C(N)c1ccc(NCc2nc(-c3ccccc3)c[nH]2)cc1OCc1ccc(Cl)cc1`, in that order: 0.0631 µM and over 5.01 µM.
The matching figures for `N=C(N)c1ccc(NCc2nc(-c3ccccc3)c[nH]2)cc1OCCO`: 3.98 µM and 79.4 µM.
In the case of `N=C(N)c1ccc(NCc2nc(-c3ccccc3)c[nH]2)cc1OCC1CC1`, the results for the IC50 on Kallikrein-5 (read-out: pIC50 (converted)) and at Kallikrein-1 were 0.794 µM and 50.1 µM, respectively. For the same molecule, the Selectivity Index in the data set listed under Homo sapiens was 60.
In the case of `N=C(N)c1ccc(NCc2nc(-c3ccccc3)c[nH]2)cc1OCc1ncccn1`, the IC50 on Kallikrein-5 (read-out: pIC50 (converted)) was 0.0794 µM; at Kallikrein-1, 39.8 µM.
Turning to `N=C(N)c1ccc(NCc2nc(-c3ccccc3)c[nH]2)cc1OCC(N)=O`, the figures for the IC50 at Kallikrein-5 (read-out: pIC50 (converted)) and on Kallikrein-1 were 0.794 µM and over 50.1 µM, respectively.
For `Cn1ccnc1CNc1ccc(C(=N)N)cc1`, in that order: 126 µM and 398 µM.
The matching figures for `N=C(N)c1ccc(NCc2nc(-c3ccccc3)c[nH]2)cc1OCc1ccccc1Cl`: 0.0316 µM and over 2.51 µM.
Regarding `N=C(N)c1ccc(NCc2nc(-c3ccccc3)c[nH]2)cc1OCc1ccccc1`, the IC50 at Kallikrein-5 (read-out: IC50) is under 0.01 µM; on Kallikrein-5 (read-out: pIC50 (converted)), 0.0794 µM; at Kallikrein-1, 25.1 µM. Besides, the Selectivity Index in the data set listed under Homo sapiens was 300.
Turning to `N=C(N)c1ccc(NCc2nc3cc(Cl)ccc3[nH]2)cc1`, the IC50 was 10 µM on Kallikrein-5 (read-out: pIC50 (converted)) and 2 µM at Kallikrein-1.
Consider `N=C(N)c1ccc(NCc2nc(-c3ccccc3)c[nH]2)cc1OCC(=O)NCC1CC1`, for which the IC50 is 0.0398 µM at Kallikrein-5 (read-out: pIC50 (converted)) and over 6.31 µM at Kallikrein-1. In data set [1], the concentration in solution (solubility at 24 h) was 3000 µg/mL (≈ 7.17 mM). Further, the solubility entry in data set [2] and in data set [3] was “Soluble” each time. For the same molecule, the half-life – broadly, how long it takes for the measured level to halve – at 0.05 mg/ml was over 1000 h in data set [4], 26.7 h in data set [5] and 14 h in data set [6]. The Activity in [7] is on record as over 290 nm; in [8], over 1000 a.u.L/mol.cm.
As to `N=C(N)c1ccc(NCc2nc(-c3ccccc3)c[nH]2)cc1OCc1ncco1`, the IC50 was 0.1 µM on Kallikrein-5 (read-out: pIC50 (converted)) and 12.6 µM at Kallikrein-1.
For `N=C(N)c1ccc(NCc2nc(-c3ccccc3)c[nH]2)cc1OCc1cccc(Cl)c1`, in that order: 0.0794 µM and over 5.01 µM.
As for `N=C(N)c1ccc(NCc2nc(-c3ccccc3)c[nH]2)cc1OCCC1CC1`, the IC50 on Kallikrein-5 (read-out: pIC50 (converted)) was 0.2 µM; at Kallikrein-1 it was 50.1 µM. Further, the Selectivity Index in the data set filed under Homo sapiens is 250.
`CNC(=O)COc1cc(NCc2nc(-c3ccccc3)c[nH]2)ccc1C(=N)N`: the IC50 at Kallikrein-5 (read-out: pIC50 (converted)) is 0.251 µM; on Kallikrein-1, 31.6 µM.
The matching figures for `CC(C)COc1cc(NCc2nc(-c3ccccc3)c[nH]2)ccc1C(=N)N`: 6.31 µM and 79.4 µM.
For the molecule `CCOc1cc(NCc2nc(-c3ccccc3)c[nH]2)ccc1C(=N)N`, the values for the IC50 on Kallikrein-5 (read-out: pIC50 (converted)) and at Kallikrein-1 were 0.316 µM and 6.31 µM, respectively. Also, the Selectivity Index in the data set listed under Homo sapiens stood at 20.
Regarding `Cn1c(CNc2ccc(C(=N)N)cc2)nc2ccccc21`, the IC50 at Kallikrein-5 (read-out: pIC50 (converted)) was 15.8 µM; at Kallikrein-1, 6.31 µM.
In the case of `N=C(N)c1ccc(NCc2nc(-c3ccccc3)c[nH]2)cc1OCc1ccccn1`, the values for the IC50 at Kallikrein-5 (read-out: pIC50 (converted)) and at Kallikrein-1 were 0.126 µM and 20 µM, respectively.
In the case of `COc1ccc2[nH]c(CNc3ccc(C(=N)N)cc3)nc2c1`, the IC50 at Kallikrein-5 (read-out: pIC50 (converted)) is 12.6 µM; at Kallikrein-1, 31.6 µM.
